# Measured values: ChEMBL document CHEMBL1123249, “Nitrobenzyl derivatives as bioreductive alkylating agents: evidence for the reductive formation of a reactive intermediate” (1986)
# Legend:
# Assay type in all cases: functional, Mus musculus
# EMT6 [1] = assay: Compound was evaluated for its effect on survival of aerobic EMT6 tumor cells when exposed to concentration at 10E-4 M
# EMT6 [2] = assay: Compound was evaluated for its effect on survival of aerobic EMT6 tumor cells when exposed to concentration at 10E-6 M
# EMT6 [3] = assay: Compound was evaluated for its effect on survival of aerobic EMT6 tumor cells when exposed to concentration at 10e-8 M
# EMT6 [4] = assay: Compound was evaluated for its effect on survival of hypoxic EMT6 tumor cells when exposed to concentration at 10E-4 M
# EMT6 [5] = assay: Compound was evaluated for its effect on survival of hypoxic EMT6 tumor cells when exposed to concentration at 10E-6 M
# EMT6 [6] = assay: Compound was evaluated for its effect on survival of hypoxic EMT6 tumor cells when exposed to concentration at 10E-8 M
# EMT6 [7] = assay: Compound was evaluated for its effect on survival of aerobic EMT6 tumor cells when exposed to concentration at 10E-5 M
# EMT6 [8] = assay: Compound was evaluated for its effect on survival of aerobic EMT6 tumor cells when exposed to concentration at 10e-6 M
# EMT6 [9] = assay: Compound was evaluated for its effect on survival of hypoxic EMT6 tumor cells when exposed to concentration at 10e-5 M
# EMT6 [10] = assay: Compound was evaluated for its effect on survival of aerobic EMT6 tumor cells when exposed to concentration at 10e-7 M
# EMT6 [11] = assay: Compound was evaluated for its effect on survival of hypoxic EMT6 tumor cells when exposed to concentration at 10e-7 M
Structure (SMILES),Surviving factor (EMT6 [1]),Surviving factor (EMT6 [2]),Surviving factor (EMT6 [3]),Surviving factor (EMT6 [4]),Surviving factor (EMT6 [5]),Surviving factor (EMT6 [6]),Surviving factor (EMT6 [7]),Surviving factor (EMT6 [8]),Surviving factor (EMT6 [9]),Surviving factor (EMT6 [10]),Surviving factor (EMT6 [11])
Nc1nc(SCc2ccc([N+](=O)[O-])cc2)c2nc[nH]c2n1,78%,106%,79%,156%,137%,102%,–,–,–,–,–
Nc1nc(SCc2cccc([N+](=O)[O-])c2)c2[nH]cnc2n1,91%,–,–,88%,103%,–,103%,95%,103%,–,–
Nc1nc(SCc2ccccc2[N+](=O)[O-])c2[nH]cnc2n1,89%,95%,91%,85%,82%,94%,–,–,–,–,–
Nc1nc2[nH]cnc2c(=S)[nH]1 [THIOGUANINE],67%,–,–,106%,90%,–,78%,70%,107%,95%,89%
